Patent US10047105B2, “Gyrase inhibitors” (Merck Sharp & Dohme Corp., priority 2009, dated 2018)
≈ marks a conversion by molar mass, not a printed value.

Columns and labels:
[1] = test system: S. pneumoniae ATCC 51916; assay: MIC, S. pneumoniae; format: cell-based; settings: S. pneumoniae
[2] = test system: S. aureus ATCC 13709; assay: MIC, antibacterial potency, S. aureus; format: cell-based; settings: S. aureus

Row | Compound | MIC Spn52 [1] | MIC, SA [2]
1 | CCc1[nH]c2nc(Sc3cnc4nccnc4c3)nc(N3CC(O)C3)c2c1Cl [700,393] | 1 µg/mL (≈ 2.42 µM) | ≤ 0.5 µg/mL
2 | CCc1[nH]c2nc(Sc3nc(C(=O)O)co3)nc(N3CC(O)C3)c2c1Cl.O=C(O)C(F)(F)F.O=C(O)C(F)(F)F [700,395] | > 64 µg/mL | > 64 µg/mL
3 | CCc1[nH]c2nc(Sc3nc(C(=O)O)cs3)nc(N3CCOCC3)c2c1Cl.O=C(O)C(F)(F)F [700,396] | > 64 µg/mL | > 64 µg/mL
4 | CCc1[nH]c2nc(Sc3nc(C(=O)NOC)cs3)nc(N3CCOCC3)c2c1Cl.O=C(O)C(F)(F)F [700,397] | > 64 µg/mL | > 64 µg/mL
5 | CCc1[nH]c2nc(Sc3nc(C(=O)O)cs3)nc(N3CCNCC3)c2c1Cl.O=C(O)C(F)(F)F [700,398] | > 64 µg/mL | > 64 µg/mL
6 | CCc1[nH]c2nc(Sc3cc(=O)n(CC(=O)O)c(=O)[nH]3)nc(N3CC(O)C3)c2c1Br [700,402] | > 64 µg/mL | > 64 µg/mL
7 | CCc1[nH]c2nc(Sc3ccc4c(N5CCNCC5)ccnc4c3)nc(N3CC(O)C3)c2c1Br [700,403] | 8 µg/mL (≈ 14.8 µM) | 4 µg/mL (≈ 7.4 µM)
8 | CCc1[nH]c2nc(Sc3cnc4nccnc4c3)nc(N3CC(NC(=O)OCc4ccccc4)C3)c2c1Br [700,404] | ≤ 0.5 µg/mL | ≤ 0.5 µg/mL
9 | CCc1[nH]c2nc(Sc3cnc4c(c3)ncn4CC)nc(N3CC(O)C3)c2c1Br [700,405] | 2 µg/mL (≈ 4.22 µM) | ≤ 0.5 µg/mL
10 | CCOc1nc(Nc2cnc3c(cnn3C(C)C)c2)nc2[nH]c(CC)c(Cl)c12.O=C(O)C(F)(F)F [700,406] | 16 µg/mL | 2 µg/mL
11 | CCc1[nH]c2nc(Sc3nc(C(=O)O)cs3)nc(N(C)C)c2c1Cl.O=C(O)C(F)(F)F [700,407] | > 64 µg/mL | > 64 µg/mL
12 | CCc1[nH]c2nc(Sc3nc(C(=O)O)cs3)nc(N3CCCC(CO)C3)c2c1Cl.O=C(O)C(F)(F)F (centres unmarked) [700,408] | > 64 µg/mL | > 64 µg/mL
13 | CCc1[nH]c2nc(Oc3cccnc3)nc(Oc3cccnc3)c2c1Cl.O=C(O)C(F)(F)F [700,410] | 4 µg/mL | 1 µg/mL
14 | CCc1[nH]c2nc(Sc3cc(OC)nc(OC)n3)nc(N3CC(O)C3)c2c1Cl.Cl.Cl [700,411] | > 64 µg/mL | > 64 µg/mL
15 | CCc1[nH]c2nc(Sc3cc(=O)n(CCC4CCCCC4)c(=O)[nH]3)nc(N3CC(O)C3)c2c1Br [700,412] | > 64 µg/mL | > 64 µg/mL
16 | CCCn1c(=O)cc(Sc2nc(N3CC(O)C3)c3c(Br)c(CC)[nH]c3n2)[nH]c1=O [700,414] | 1 µg/mL (≈ 2.08 µM) | ≤ 0.5 µg/mL
17 | CCc1[nH]c2nc(Sc3cc(=O)n(CCC(F)(F)F)c(=O)[nH]3)nc(N3CC(O)C3)c2c1Br [700,415] | 1 µg/mL (≈ 1.87 µM) | ≤ 0.5 µg/mL
18 | CCc1[nH]c2nc(Sc3cc(=O)n(CC4CC4)c(=O)[nH]3)nc(N3CC(O)C3)c2c1Br [700,416] | 2 µg/mL (≈ 4.05 µM) | ≤ 0.5 µg/mL
19 | CCOc1ccc(Nc2nc(OCC)c3c(Br)c(CC)[nH]c3n2)cn1.O=C(O)C(F)(F)F [700,417] | 16 µg/mL | 1 µg/mL
20 | CCCn1c(=O)cc(Sc2nc(N3CC(O)C3)c3c(Cl)c(CC)[nH]c3n2)[nH]c1=O [700,418] | 8 µg/mL (≈ 18.3 µM) | 1 µg/mL (≈ 2.29 µM)
21 | CCc1[nH]c2nc(Sc3cnc(C#N)c(F)c3)nc(N3CC(O)C3)c2c1Cl.O=C(O)C(F)(F)F.O=C(O)C(F)(F)F [700,422] | > 64 µg/mL | > 64 µg/mL
22 | CCc1[nH]c2nc(Sc3cnc4nccnc4c3)nc(N3CCOCC3)c2c1Br [700,423] | 2 µg/mL (≈ 4.23 µM) | 1 µg/mL (≈ 2.12 µM)
23 | CCc1[nH]c2nc(Sc3cnc4nccnc4c3)nc(N3CCOCC3)c2c1Cl [700,424] | 1 µg/mL (≈ 2.34 µM) | ≤ 0.5 µg/mL
24 | CCc1[nH]c2nc(Sc3cnc4nccnc4c3)nc(N3CCCC(CO)C3)c2c1Cl (centres unmarked) [700,425] | 2 µg/mL (≈ 4.39 µM) | ≤ 0.5 µg/mL
25 | CCc1[nH]c2nc(Sc3cnc4nccnc4c3)nc(N3CCC[C@H]3CO)c2c1Cl [700,426] | 1 µg/mL (≈ 2.26 µM) | 1 µg/mL (≈ 2.26 µM)
26 | CCc1[nH]c2nc(Sc3cnc4nccnc4c3)nc(N3CC[C@H](O)C3)c2c1Cl [700,427] | 1 µg/mL (≈ 2.34 µM) | ≤ 0.5 µg/mL
27 | CCc1[nH]c2nc(Sc3cnc4nccnc4c3)nc(N3CC[C@@H](O)C3)c2c1Cl [700,428] | 1 µg/mL (≈ 2.34 µM) | ≤ 0.5 µg/mL
28 | CCc1[nH]c2nc(Sc3cnc4nccnc4c3)nc(N3CCC(N4CCOCC4)C3)c2c1Cl (centres unmarked) [700,429] | 2 µg/mL (≈ 4.02 µM) | ≤ 0.5 µg/mL

Row | Compound | MIC Spn52 [1] | MIC, SA [2]
29 | CCc1[nH]c2nc(Sc3cnc4nccnc4c3)nc(N3CC[C@@H](N(C)C)C3)c2c1Cl [700,430] | 32 µg/mL (≈ 70.3 µM) | 32 µg/mL (≈ 70.3 µM)
30 | CCc1[nH]c2nc(Sc3cnc4nccnc4c3)nc(N(C)CC(O)C(O)C(O)C(O)CO)c2c1Cl (centres unmarked) [700,431] | > 64 µg/mL | > 64 µg/mL
31 | CCc1[nH]c2nc(Sc3cnc4nccnc4c3)nc(Oc3cccnc3)c2c1Cl [700,432] | 4 µg/mL (≈ 9.18 µM) | 1 µg/mL (≈ 2.29 µM)
32 | CCc1[nH]c2nc(Sc3cc(=O)n(C)c(=O)[nH]3)nc(N3CC(O)C3)c2c1Br [700,433] | 1 µg/mL (≈ 2.21 µM) | ≤ 0.5 µg/mL
33 | CCc1[nH]c2nc(Sc3cnc4nccnc4c3)nc(N3CC(NS(C)(=O)=O)C3)c2c1Cl [700,435] | 1 µg/mL (≈ 2.04 µM) | ≤ 0.5 µg/mL
34 | CCc1[nH]c2nc(Sc3cnc4nccnc4c3)nc(N3CC(NS(=O)(=O)CC(F)(F)F)C3)c2c1Cl [700,436] | 1 µg/mL (≈ 1.79 µM) | ≤ 0.5 µg/mL
35 | CCc1[nH]c2nc(Sc3cnc4nccnc4c3)nc(N3CC(NS(=O)(=O)c4cnoc4C)C3)c2c1Cl [700,437] | 2 µg/mL (≈ 3.58 µM) | ≤ 0.5 µg/mL
36 | CCc1[nH]c2nc(Sc3cnc4nccnc4c3)nc(N3CC(NC(=O)COC)C3)c2c1Cl [700,438] | 1 µg/mL (≈ 2.06 µM) | ≤ 0.5 µg/mL
37 | CCc1[nH]c2nc(Sc3cnc4nccnc4c3)nc(N3CC(NC(=O)c4cnccn4)C3)c2c1Cl [700,439] | 1 µg/mL (≈ 1.93 µM) | ≤ 0.5 µg/mL
38 | CCc1[nH]c2nc(Sc3cnc4nccnc4c3)nc(N3CC(NC(=O)C4CC4)C3)c2c1Cl [700,440] | ≤ 0.5 µg/mL | ≤ 0.5 µg/mL
39 | CCc1[nH]c2nc(Sc3cnc4nccnc4c3)nc(N3CC(NC(C)=O)C3)c2c1Cl [700,441] | 2 µg/mL (≈ 4.4 µM) | ≤ 0.5 µg/mL
40 | CCc1[nH]c2nc(Sc3cc(=O)n(CC(C)=O)c(=O)[nH]3)nc(N3CC(O)C3)c2c1Br [700,442] | 2 µg/mL (≈ 4.04 µM) | ≤ 0.5 µg/mL
41 | CCOc1nc(Nc2ccc3nccnc3c2)nc2[nH]c(CC)c(Br)c12.O=C(O)C(F)(F)F [700,443] | > 64 µg/mL | > 64 µg/mL
42 | CCc1[nH]c2nc(Sc3cnc4nccnc4c3)nc(N3CCN(CCN)CC3)c2c1Cl.O=C(O)C(F)(F)F [700,444] | 8 µg/mL | 4 µg/mL
43 | CCc1[nH]c2nc(Sc3cnc4nccnc4c3)nc(N3CCN(CCO)CC3)c2c1Cl.O=C(O)C(F)(F)F [700,445] | 16 µg/mL | 16 µg/mL
44 | CCc1[nH]c2nc(Sc3cnc4c(N)nc(N)nc4c3)nc(N3CC(O)C3)c2c1Cl.O=C(O)C(F)(F)F.O=C(O)C(F)(F)F [700,448] | 2 µg/mL | 1 µg/mL
45 | CCc1[nH]c2nc(Sc3cnc4nccnc4c3)nc(N3CC(NC(=O)c4cnc[nH]4)C3)c2c1Cl [700,449] | 1 µg/mL (≈ 1.97 µM) | 1 µg/mL (≈ 1.97 µM)
46 | CCOc1nc(Nc2cnc3c(c2)nnn3C(C)C)nc2[nH]c(CC)c(Br)c12.O=C(O)C(F)(F)F [700,450] | 4 µg/mL | ≤ 0.5 µg/mL
47 | CCc1[nH]c2nc(Sc3cc(=O)n(CC(C)O)c(=O)[nH]3)nc(N3CC(O)C3)c2c1Br (centres unmarked) [700,451] | 4 µg/mL (≈ 8.04 µM) | 1 µg/mL (≈ 2.01 µM)
48 | CCOc1nc(Nc2cnc3c(c2)c(=O)n(C)c(=O)n3C)nc2[nH]c(CC)c(Br)c12.O=C(O)C(F)(F)F [700,452] | > 64 µg/mL | > 64 µg/mL
49 | CCc1[nH]c2nc(Sc3cnc4nccnc4c3)nc(N3CC(NC(=O)c4csc(N)n4)C3)c2c1Cl [700,453] | ≤ 0.5 µg/mL | ≤ 0.5 µg/mL
50 | CCc1[nH]c2nc(Sc3cnc4nccnc4c3)nc(N3CC(NC(=O)c4cc(N)ccn4)C3)c2c1Cl [700,454] | 1 µg/mL (≈ 1.88 µM) | ≤ 0.5 µg/mL
51 | CCc1[nH]c2nc(Sc3cnc4nccnc4c3)nc(NCCCn3ccnc3)c2c1Cl [700,455] | 2 µg/mL (≈ 4.29 µM) | 2 µg/mL (≈ 4.29 µM)
52 | CCc1[nH]c2nc(Sc3cnc4nccnc4c3)nc(N3CCc4nc(N)sc4C3)c2c1Cl [700,456] | 4 µg/mL (≈ 8.06 µM) | ≤ 0.5 µg/mL
53 | CCc1[nH]c2nc(Sc3cnc4nccnc4c3)nc(NC[C@H](C)O)c2c1Cl [700,457] | 2 µg/mL (≈ 4.81 µM) | 1 µg/mL (≈ 2.4 µM)
54 | CCc1[nH]c2nc(Oc3cncnc3)nc(N3CC(O)C3)c2c1Cl.O=C(O)C(F)(F)F [700,458] | 8 µg/mL | 2 µg/mL
55 | CCc1[nH]c2nc(Oc3cccnc3)nc(N3CCN(C(C)=O)CC3)c2c1Cl.O=C(O)C(F)(F)F [700,459] | 32 µg/mL | 16 µg/mL
